# Source: US20220378739A1, “NATURAL KILLER CELL IMMUNOTHERAPY FOR THE TREATMENT OF GLIOBLASTOMA AND OTHER CANCERS” (BOARD OF REGENTS, THE UNIVERSITY OF TEXAS SYSTEM, priority 2019, published 2022)
# Assays:
# [1] = test system: TGF-β1 Smad⅔ signaling pathway in NK cells; test: Phospho-Smad⅔ assay in NK cells co-cultured with GSCs; format: cell-based, human; details: healthy control NK cells + GSCs; inhibitor 10 μM
# Procedure: GSCs and purified NK cells were co-cultured for 48 hours in the presence of anti-TGFβ 123 (5 μg/ml) (R&D), HLA-ABC blocking antibody (clone W 6/32, Biolegend), CD44 blocking antibody (clone IM7, Biolegend), ILT-2 (CD85J) blocking antibody (clone HP-F1, ThermoFisher), CD155 blocking antibody (clone D171, GenTex), CD112 blocking antibody (clone TX31, Biolegend), 10 μM LY2109761, 10 μM galunisertib (LY2157299), 10 μM Cilengitide (Cayman Chemical) or 1 μM MMP-2/MMP-9 inhibitor I (Millipore). Cytotoxicity assays were then performed as described above.
# NK cells were stained with Live/dead-aqua and CD56 ECD (Beckman Coulter) for 20 min in the dark at RT, washed with PBS fixed for 10 min in the dark. After one wash, the cells were permeabilized (Beckman Coulter kit) and stained with p-(5465/5467)-Smad2/p-(5423/5425)/Smad3-Alexa 647 mAb Phosflow antibody (BD Biosciences) for 30 minutes at room temperature. Cells incubated with 10 ng/ml recombinant TGF-β for 45 minutes in 37° C. were used as positive control.
# [2] = literature; cited from earlier work
# GSC targets = test: NK cell functional assay (51Cr release; CD107a, IFN-γ, TNF-α) against GSC targets after co-culture with GSCs; format: cell-based, human; details: 48 hours co-culture with GSCs 1:1; inhibitor 10 μM
# Procedure: NK cells were co-cultured for 5 hours with K562 or GSCs target cells at an optimized effector:target ratio of 5:1 together with CD107a PE-CF594 (BD Biosciences), monensin (BD GolgiStopTM) and BFA (Brefeldin A, Sigma Aldrich). NK cells were incubated without targets as the negative control and stimulated with PMA (50 ng/mL) and ionomycin ([…], Sigma Aldrich) as positive control. Cells were collected, washed and stained with surface antibodies (mentioned above), fixed/permeabilized (BD Biosciences) and stained with IFN-7 v450 and TNF-α Alexa700 (BD Biosciences) antibodies.
# NK cell cytotoxicity was assessed using chromium (siCr) release assay. Briefly, K562 or GSCs target cells were labeled with siCr (PerkinElmer Life Sciences, Boston, Mass.) at 50 μCi/5×10^5 cells for 2 hours. ^51Cr-labeled K562/GSC targets (5×105) were incubated for 4 h with serially diluted magnetically isolated NK cells in triplicate. Supernatants were then harvested and analysed for ^51Cr content.
# For studies of NK cell suppression by GSCs and human astrocytes, magnetically selected healthy NK cells were cultured in Serum-free Stem Cell Growth Medium (SCGM; CellGro/CellGenix) supplemented with 5% glutamine, 5 μM HEPES (both from GIBCO/Invitrogen), and 10% FCS (Biosera) in 96-well flat-bottomed plates (Nunc) at 100,000/100D11. […]
# patient-derived GSCs = test: Xenogeneic (PDX) NSG mouse model of GBM; format: in vivo
# Procedure: To test this prediction, a PDX mouse model of patient-derived GSC was used, in which, ffLuc+ patient-derived GSCs (0.5×10^6) were stereotactically implanted on day 0 through a guide-screw into the right forebrain of NOD/SCID/IL2Rγc null mice (n=4-5 per group). After 7 days, the mice were treated intratumorally with 2.0×10^6 human NK cells every 7 days for 11 weeks (FIG. 5A) with either galunisertib to block the TGF-β signaling or cilengitide to block the integrin pathway. Galunisertib was administered five times a week by oral gavage and cilengitide three times a week by intraperitoneal injection. Animals implanted with tumor that were either untreated or received NK cells alone, galunisertib alone or cilengitide alone served as controls.
# To assess the anti-tumor effect of NK cells against GSCs in vivo, a NOD/SCID IL-2R7null (NSG) human xenograft model (Jackson Laboratories, Bar Harbor, Me.) was used. Intracranial implantation of GSCs into male mice was performed as previously described^55. A total of 60 mice were used. 0.5×10^5 GSCs were implanted intracranially into the right frontal lobe of 5 week old NSG mice using a guide-screw system implanted within the skull. To increase uniformity of xenograft uptake and growth, cells were injected into 10 animals simultaneously using a multiport Microinfusion Syringe Pump (Harvard Apparatus, Holliston, Mass.). Animals were anesthetized with xylazine/ketamine during the procedure. For in vivo bioluminescent imaging, GSCs were engineered to express luciferase by lentivirus transduction. Kinetics of tumor growth was monitored using weekly bioluminescence imaging (BLI; Xenogen-IVIS 200 Imaging system; Caliper, Waltham, Mass.). Signal quantitation in photons/second (p/s) was performed by determining the photon flux rate within standardized regions of interest (ROI) using Living Image software (Caliper). […] expanded donor peripheral blood NK cells^56 were injected intracranially via the guide-screw at day 7 post tumor implantation, and then every 7 days for 11 weeks. Mice were treated with either cilengitide or galunisertib (both from MCE Med Chem Express, Monmouth Junction, NJ) in the presence or absence of intracranial NK cell injection. Cilengitide was administered intraperitoneally 3 times a week starting at day 1 (250 μg/100 μl PBS) while galunisertib was administered orally (75 mg/kg) by gavage 5 days a week starting at day 1 (see FIG. 5A). […]
# Brain tissue specimens from untreated control mice, mice treated with either NK cells alone, cilengitide alone, galunisertib alone or with combination therapy of NK+ cilengitide or NK+ galunisertib were collected. […] Sections lacking tumor were also evaluated for evidence of meningoencephalitis using a Leica DM 2500 light microscope by a board-certified veterinary pathologist. […]
smiles,measurement,setting,value
Cc1cccc(-c2nn3c(c2-c2ccnc4ccc(C(N)=O)cc24)CCC3)n1 [galunisertib],p-Smad⅔ expression (MFI) in NK cells co-cultured with GSCs,[1],prevented GSCs from activating the TGF-β1 Smad⅔ signaling pathway in NK cells
same,safety in glioblastoma patients,[2],has been used safely in GBM patients
same,GSC-induced NK cell dysfunction: natural cytotoxicity against GSC targets,GSC targets,preserving the natural cytotoxicity of NK cells against K562 or GSC targets
same,"tumor bioluminescence (BLI), first experiment","patient-derived GSCs; NK cells intratumorally every 7 days for 11 weeks, galunisertib oral 5 times a week, cilengitide i.p. three times a week",tumor bioluminescence rapidly increased
same,NK-mediated GBM killing / efficacy in PDX model of GBM (summary statements),"patient-derived GSCs; mouse, in vivo",enhances NK-mediated GBM killing in vivo
